Source: PubChem BioAssay (NCI)
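Cells were grown in 96-well plates and exposed to each compound for 48 hours at five concentrations; endpoints were interpolated linearly between bracketing concentrations, or set to the highest concentration if not reached. Abbreviation: GI50, concentration required for 50% inhibition of growth. TGI marks complete inhibition of growth.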

Key:
Assay in all cases: NCI-60 cell line screen, 48 h
DU-145 prostate = test system: DU-145 prostate
LOX IMVI melanoma = test system: LOX IMVI melanoma
MCF7 breast = test system: MCF7 breast
NCI-H460 lung = test system: NCI-H460 lung
OVCAR-3 ovarian = test system: OVCAR-3 ovarian
PC-3 prostate = test system: PC-3 prostate
TK-10 renal = test system: TK-10 renal
UACC-62 melanoma = test system: UACC-62 melanoma
SNB-78 CNS = test system: SNB-78 CNS
DMS 114 small cell lung = test system: DMS 114 small cell lung

SMILES | GI50 (DU-145 prostate) [µM] | TGI (DU-145 prostate) [µM] | GI50 (LOX IMVI melanoma) [µM] | TGI (LOX IMVI melanoma) [µM] | GI50 (MCF7 breast) [µM] | TGI (MCF7 breast) [µM] | GI50 (NCI-H460 lung) [µM] | TGI (NCI-H460 lung) [µM] | GI50 (OVCAR-3 ovarian) [µM] | TGI (OVCAR-3 ovarian) [µM] | GI50 (PC-3 prostate) [µM] | TGI (PC-3 prostate) [µM] | GI50 (TK-10 renal) [µM] | TGI (TK-10 renal) [µM] | GI50 (UACC-62 melanoma) [µM] | TGI (UACC-62 melanoma) [µM] | TGI (SNB-78 CNS) [µM] | TGI (DMS 114 small cell lung) [µM]
COc1ccc(C2=NN(C(=O)c3cc(OC)c(OC)c(OC)c3)C(c3ccc(C#N)cc3)C2)cc1OC (stereo unspecified) | 2.98 | > 39 | 2.24 | 16.3 | 0.512 | > 88.9 | 2.01 | > 100 | 0.478 | 2.35 | 1.94 | > 52.3 | 3.65 | > 45 | 0.737 | > 53.1 | – | –
COc1cc(OC)cc(-c2ccc(-c3ccc(C(=N)N)o3)o2)c1 | 4.28 | 15.2 | 1.79 | 3.29 | 1.8 | 4.31 | 2.32 | 5.17 | 3.26 | 11.3 | 4.77 | 17.5 | 13.4 | 26.5 | 1.96 | 3.98 | – | –
Cc1ccc(C)c(NC(=O)CC/C(=N\NC(=O)C(=O)NN)C(C)C(=O)c2ccc(O)cc2)c1 (stereo unspecified) | – | – | – | > 100 | – | – | – | > 100 | – | > 100 | – | – | – | > 100 | – | > 100 | > 100 | –
O=C(N/N=C/c1ccccc1O)c1cccc([N+](=O)[O-])c1 | – | – | – | > 81.4 | – | – | – | > 100 | – | 6.73 | – | – | – | > 84.6 | – | > 70.8 | > 100 | 39.3
CC12CC[C@@H](C(C)(C)O)C1[C@@H](O)CC1(C)C2CCC2[C@@]3(C)CC[C@H](O)C(C)(C)C3C(O)C[C@]21C (stereo partly specified) | – | – | – | – | – | – | – | 37.5 | – | 35.3 | – | – | – | 35.6 | – | 34.7 | 38.8 | 38.2
CN1CCN(Cc2ccc(NC(=O)c3cncc(C#Cc4cnc(N)c5ccc(C#N)cc45)c3)cc2C(F)(F)F)CC1 | 0.0332 | 1.47 | 0.0203 | 0.546 | 0.688 | 1.86 | 0.0976 | 1.1 | 0.331 | 1.45 | 0.357 | 1.37 | 0.21 | 1.47 | 0.0279 | 0.422 | – | –
O=C(NCCOCCOCCNc1cccc2c1C(=O)N(C1CCCNC1=O)C2=O)c1cc2c(o1)C(=O)c1ccccc1C2=O (stereo unspecified) | 1.69 | 3.11 | 1.17 | 3 | 1.25 | 3.21 | 1.85 | 3.59 | 0.682 | 2.69 | 2.63 | 46 | 3.39 | 7.14 | 1.37 | 2.99 | – | –
O=C(c1ccco1)c1nc2ccc(C(F)(F)F)cc2[n+]([O-])c1C(F)(F)F | 42.7 | > 100 | > 100 | > 100 | 41.6 | > 100 | 44 | > 100 | 98.8 | > 100 | 28.7 | > 100 | 28.8 | > 100 | 43.1 | > 100 | – | –
COc1ccc2cc1Oc1ccc(cc1)CC1c3cc(c(OC)cc3CCN1C)Oc1c3c(cc4c1C(C2)N(C)CC4)OCO3 (stereo unspecified) | – | – | – | 4.72 | – | – | – | 28.4 | – | 30 | – | – | – | 5.66 | – | 30.1 | 30.7 | 17.5
